A short description of data set [1]: Rat pharmacokinetics (oral and IV), plasma by LC-MS/MS. The note with it: for AUC(0-t): Compound 1 prepared by Method 2, Compound 1D prepared by Method 2, read-out: AUC0-24. It is filed as in vivo, rats (Wistar rat strains). The procedure: The oral bioavailability of Compound 1 and its salts were evaluated in rats. The protocol for the pharmacokinetic (PK) studies in rats is provided below.
Formulation 1: Polysorbate 80 (10% v/v)+Methyl Cellulose (MC) (0.5% w/v) • 1. 200 mg^#of the test compound was weighed and transferred into a mortar. • 2. 1.0 mL of polysorbate 80 (10% v/v of the final suspension) was added to the mortar and the test item was triturated to afford a smooth paste. • 3. 9.0 mL of 0.5% methyl cellulose (4000 cps) was added and triturated to afford a fine suspension. • 4. The final strength of the formulation was 20.0 mg/mL. #For salts of the test compound in order to achieve the equivalent dose level on a molar basis as the free base, a correction factor was used based on the salt and purity. Formulation 2: Propylene Glycol (40% v/v)+60% Methyl Cellulose (MC) (0.5% w/v) • 1. 1400 mg #of the test compound was weighed and transferred into a glass beaker. • 2. 28.0 mL of propylene glycol (1,2-popanediol) (40% v/v of the final volume) was added to the glass beaker and sonicated for 20 min to dissolve. (strength is 50 mg/mL) • 3. At the time of dosing, 20 mL of propylene glycol (50.0 mg/mL) and 30.0 mL of 0.5% methyl cellulose (4000 cps) were mixed with continuous stirring to afford a clear solution • 4. The final strength of the formulation was 20.0 mg/mL. • #For salts of the test compound in order to achieve the equivalent dose level on a molar basis as the free base, a correction factor was used based on the salt and purity.
(§1) Protocol: All animals (mice (BALB/c mice), rats (Wistar rat strains), and dogs (beagle, non-naïve)) were fasted overnight (12 hours) before dosing and continued till 4.0 hours after administration of test item. The blood samples (all collections each of 150 μL from each animal) were collected according to the sampling schedule from orbital sinus or jugular vein into the micro centrifuge tube containing dipotassium EDTA as an anticoagulant. Blood samples were centrifuged immediately with a speed of 4000 RPM for 10 min at 4° C. and separated plasma samples were frozen at below −80° C. and stored until analysis. The plasma concentrations of test item in all samples were analysed by LC-MS/MS method Pharmacokinetic parameters viz. Cmax, AUC0-t, AUC0-∞, Tmax, and t½, were estimated by using WinNonlin software.

The nature of data set [2]: Dog pharmacokinetics (IV and oral), plasma by LC-MS/MS. Format: in vivo, dogs (beagle, non-naïve). Here is the method: as §1
Data set [3] can be described thus: Mice pharmacokinetics (IV and oral), plasma by LC-MS/MS. Format: in vivo, mice (BALB/c mice). Here is the method: as §1
Data set [4] relates to BRCA mutant and non-BRCA mutant cancer cell lines. The data set is described as follows: Cell proliferation assay to determine GI50 in BRCA mutant and non-BRCA mutant cancer cell lines. Format: cell-based. The note with it: range over BRCA mutant and non-BRCA mutant cancer cell lines; treatment 72, 120 or 144 hours. Here is the method: On Day “0” the test cells were plated in 100 μL/well in complete media in a 96-well plate in triplicates and plates were incubated at 37° C. and 5% CO2. On Day 1, 10 μL of MTT (5 mg/ml) were added to the column designated for Day “0”. It was mixed well and incubated at 37° C. and 5% CO2 for 3.5 h. Cells were pelleted down at 4000 rpm for 10 minutes. Media was aspirated out and 150 μL of DMSO were added to the cells and mixed by pipetting to dissolve the crystals. Plate was read at A560 nm and A640. DMSO dilutions of the inhibitors (Compound 1 or Compound 1D) were diluted to 3× of required concentration in growth medium. Cells in each well were treated with 50 μL of complete media containing inhibitor. DMSO concentration in the well was 0.1%. Plates were incubated at 37° C. and 5% CO2 as required for 144 hours. 15 μL of MTT (5 mg/mL) was added to the wells. Plates were incubated at 37° C. and 5% CO2 for 3.5 hours. After incubation, cells are pelleted down at 4000 rpm for 10 min. Media was aspirated and 150 μL of DMSO per well were added to dissolve the formazan crystals. Plate was read at A560 nm and A640. […]
Cancer cell lines were plated at desired density in their respective complete media and incubated overnight at 37° C. and 5% CO2. […] At the end of the treatment period, cell viability was measured and GI50 values were calculated.

The mark [5] stands for this setting: oral, 100 mg/kg, Formulation 1: Polysorbate 80 (10% v/v) + MC (0.5% w/v), Compound 1 prepared by Method 2, Compound 1D prepared by Method 2.
Setting [6] is: oral, 100 mg/kg, Formulation 1: Polysorbate 80 (10% v/v) + MC (0.5% w/v), Compound 1 prepared by Method 2, Compound 1D prepared by Method 2, 100 mg/kg.
Where [7] appears, read: oral, 100 mg/kg, Formulation 1: Polysorbate 80 (10% v/v) + MC (0.5% w/v), Compound 1C prepared by Method 1.
The mark [8] stands for this setting: oral, 100 mg/kg, Formulation 1: Polysorbate 80 (10% v/v) + MC (0.5% w/v), Compound 1C prepared by Method 2.
Setting [9] is: oral, 100 mg/kg, Formulation 2: PG (40% v/v) + 60% MC (0.5% w/v), Compound 1D prepared by Method 2.
[10] abbreviates: oral, 100 mg/kg, Formulation 2: PG (40% v/v) + 60% MC (0.5% w/v), Compound 1D prepared by Method 3.
[11] abbreviates: Wistar, plasma, oral, 100 mg/kg, Formulation 1: Polysorbate 80 (10% v/v) + MC (0.5% w/v), Compound 1 prepared by Method 2, Compound 1D prepared by Method 2.
[12] abbreviates: Wistar, plasma, oral, 100 mg/kg, Formulation 1: Polysorbate 80 (10% v/v) + MC (0.5% w/v).
Where [13] appears, read: Wistar, plasma, oral, 100 mg/kg, Formulation 1: Polysorbate 80 (10% v/v) + MC (0.5% w/v), Compound 1 prepared by Method 2, Compound 1D prepared by Method 2, read-out: Tmax.

Each structure is given as a SMILES string.

As a reminder, the Tmax is the time from dosing to the highest level. In general, Cmax refers to the highest concentration seen after dosing. For `C[C@]1(O)C(=O)N(c2cncc(Cc3n[nH]c(=O)c4ccccc34)c2)c2ccccc21.O=S(=O)(O)c1ccccc1` [Compound 1B, (R)-(+)-4-((5-(3-hydroxy-3-methyl-2-oxoindolin-1-yl)pyridin-3-yl)methyl)phthalazin-1(2H)-one, benzene sulfonate], in data set [1] (setting [5]), the AUC0-24 turned out to be 32.43 µM·h and the time to peak (Tmax) amounted to 30 min. Moreover, the Cmax in data set [1] (setting [6]) was 17.2 µM.
Regarding `C[C@]1(O)C(=O)N(c2cncc(Cc3n[nH]c(=O)c4ccccc34)c2)c2ccccc21.Cc1ccc(S(=O)(=O)O)cc1` [Compound 1C, (R)-(+)-4-((5-(3-hydroxy-3-methyl-2-oxoindolin-1-yl)pyridin-3-yl)methyl)phthalazin-1(2H)-one, 4-methylbenzene sulfonate], in data set [1] (setting [7]), the AUC0-24 came to 39.98 µM·h, the peak concentration (Cmax) turned out to be 11.9 µM and the time of peak concentration (Tmax) was 30 min. Also, in data set [1] (setting [8]), the AUC0-24 was found to be 23.09 µM·h, the Cmax is 10.5 µM and the Tmax stood at 15 min.
Regarding `CS(=O)(=O)O.C[C@]1(O)C(=O)N(c2cncc(Cc3n[nH]c(=O)c4ccccc34)c2)c2ccccc21` [Compound 1D, (R)-(+)-4-((5-(3-Hydroxy-3-methyl-2-oxoindolin-1-yl)pyridin-3-yl)methyl)phthalazin-1(2H)-one, methane sulfonate], the AUC0-24 in data set [2] (IV, 1 mg/kg) is 2.73 µM·h; in data set [2] (oral, 20 mg/kg), 57.05 µM·h; in data set [1] (IV, 1 mg/kg), 1.18 µM·h; in data set [1] (oral, 10 mg/kg), 8.96 µM·h; in data set [1] (setting [5]), 34.71 µM·h; in data set [1] (setting [9]), 135.36 µM·h. Also, the AUC0-24 in data set [1] (setting [10]) was determined as 139.36 µM·h; in data set [3] (IV, 1 mg/kg) it was 1.12 µM·h; in data set [3] (oral, 10 mg/kg), 5.64 µM·h. The C0 in data set [2] (IV, 1 mg/kg) stood at 4.11 µM; in data set [1] (IV, 1 mg/kg), 5.25 µM; in data set [3] (IV, 1 mg/kg), 3.12 µM. In addition, the Cmax was determined as 3.47 µM in data set [2] (IV, 1 mg/kg); 22.9 µM in data set [2] (oral, 20 mg/kg); 4.47 µM in data set [1] (IV, 1 mg/kg); 8.43 µM in data set [1] (oral, 10 mg/kg); 13 µM in data set [1] (setting [6]); 55.6 µM in data set [1] (setting [9]). Besides, the Cmax in data set [1] (setting [10]) was found to be 53.7 µM; in data set [3] (IV, 1 mg/kg) it was 2.87 µM; in data set [3] (oral, 10 mg/kg), 7.62 µM. Also, the Tmax worked out at 30 min in data set [2] (oral, 20 mg/kg); 22.8 min in data set [1] (oral, 10 mg/kg); 15 min in data set [1] (setting [5]); 30 min in data set [1] (setting [9]); 30 min in data set [1] (setting [10]); 15 min in data set [3] (oral, 10 mg/kg).
By GI50 is commonly meant the concentration that inhibits growth by half. Higher therefore signals less potent growth inhibition. By melting point is commonly meant the temperature, or range, at which the solid turns liquid. Compound `C[C@]1(O)C(=O)N(c2cncc(Cc3n[nH]c(=O)c4ccccc34)c2)c2ccccc21` [Compound 1, (R)-(+)-4-((5-(3-Hydroxy-3-methyl-2-oxoindolin-1-yl)pyridin-3-yl)methyl)phthalazin-1(2H)-one] showed a melting point of 110 to 113 °C. For the same compound, the GI50 in data set [4] is 0.043 to 19.8 µM. For the same compound, the Cmax in data set [1] (setting [11]) was 2.56 µM. Also, the AUC(0-t) in data set [1] (setting [12]) was found to be 7.81 µM·h. In addition, the Tmax in data set [1] (setting [13]) worked out at 30 min.
Turning to `C[C@]1(O)C(=O)N(c2cncc(Cc3n[nH]c(=O)c4ccccc34)c2)c2ccccc21.Cl` [Compound 1A, (R)-(+)-4-((5-(3-Hydroxy-3-methyl-2-oxoindolin-1-yl)pyridin-3-yl)methyl)phthalazin-1(2H)-one, hydrochloride], the melting point was 226 to 228 °C. Besides, the highest concentration (Cmax) in data set [1] (setting [11]) was determined as 4.38 µM. Further, in data set [1] (setting [12]), the AUC(0-t) was 23.3 µM·h. Besides, the Tmax in data set [1] (setting [13]) was 15 min.

For the origin of these results see patent publication US20240199582A1, “INHIBITORS OF POLY(ADP-RIBOSE) POLYMERASE” (RHIZEN PHARMACEUTICALS AG, priority 2021, published 2024).
